From ChEMBL document CHEMBL1201862, “PubChem BioAssay data set” (2004)
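Five concentrations, 48 hours, 96-well plates. GI50 marks 50% less growth.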 Active and inactive are the calls of the source. Cut-off read from the data, not from the text of the source: active = GI50 up to about 1.1 µM and inactive = higher. Starred links: 1 amine or outer side, 2 acyl side, 3 side chain; linkers in the order of their positions; H or OH if unused. Non-standard residues stand in square brackets, D forms with d. Residues, ends and D or L forms follow the SMILES beside them. X41 = CSCCCC(N[*:1])C(=O)[*:2]

What was measured:
Assay in all cases: DTP human tumour cell line panel, 48 h
UACC-62 = tested on: UACC-62
SK-MEL-2 = tested on: SK-MEL-2
Hs-578T = tested on: Hs-578T
SNB-75 = tested on: SNB-75
PC-3 = tested on: PC-3
A498 = tested on: A498
SK-MEL-5 = tested on: SK-MEL-5
SF-268 = tested on: SF-268
SN12C = tested on: SN12C
HOP-62 = tested on: HOP-62
SF-295 = tested on: SF-295
SR = tested on: SR
K562 = tested on: K562
HCC 2998 = tested on: HCC 2998
Malme-3M = tested on: Malme-3M
BT-549 = tested on: BT-549
NCI-H226 = tested on: NCI-H226
U-251 = tested on: U-251
NCI-H522 = tested on: NCI-H522

Measured: GI50

CC(C)=CCC[C@@H](C)C1=C(O)C(=O)C(C)=C(Nc2ccccc2I)C1=O
inactive: UACC-62 9.27 µM | SK-MEL-2 10.8 µM | Hs-578T 9.12 µM | SNB-75 6.14 µM | PC-3 5.61 µM | A498 5.43 µM | SK-MEL-5 9.79 µM | SF-268 11.3 µM | SN12C 16.7 µM | HOP-62 7.59 µM | SF-295 4.22 µM | SR 1.3 µM | K562 12.5 µM | HCC 2998 16.6 µM | Malme-3M 12.2 µM | BT-549 23.6 µM | NCI-H226 5.42 µM | U-251 7.01 µM

COc1cc(Nc2ccc3c(c2)CCC3)nc(OC)n1
inactive: UACC-62 51.3 µM | SK-MEL-2 33 µM | Hs-578T 6.58 µM | SNB-75 18.9 µM | PC-3 27.1 µM | A498 24.3 µM | SK-MEL-5 23.9 µM | SF-268 23.9 µM | SN12C 30.2 µM | HOP-62 54.6 µM | SF-295 29.6 µM | SR 20.5 µM | NCI-H522 21.4 µM | HCC 2998 29.7 µM | Malme-3M 32.1 µM | BT-549 33.3 µM | NCI-H226 32.5 µM | U-251 > 100 µM

C=CCC(CNC(=O)OCc1ccccc1)OC(=O)OCc1ccccc1 (configuration not stated)
inactive: UACC-62 93.5 µM | SK-MEL-2 48.2 µM | Hs-578T > 100 µM | SNB-75 > 100 µM | PC-3 48.3 µM | A498 > 100 µM | SK-MEL-5 22 µM | SF-268 > 100 µM | SN12C > 100 µM | HOP-62 > 100 µM | SF-295 55.5 µM | SR 21.8 µM | NCI-H522 62.1 µM | K562 37.3 µM | HCC 2998 > 100 µM | BT-549 > 100 µM | NCI-H226 > 100 µM | U-251 > 100 µM

CC1Cn2c(nc3ccccc32)NC1=O (configuration not stated)
inactive: UACC-62 > 100 µM | SK-MEL-2 > 100 µM | Hs-578T > 100 µM | SNB-75 > 100 µM | PC-3 > 100 µM | A498 > 100 µM | SK-MEL-5 > 100 µM | SF-268 > 100 µM | HOP-62 > 100 µM | SF-295 > 100 µM | SR > 100 µM | NCI-H522 > 100 µM | K562 > 100 µM | Malme-3M 58.2 µM | BT-549 > 100 µM | NCI-H226 > 100 µM | U-251 > 100 µM

Nc1ccc2nc(-c3ccccn3)c(-c3ccccn3)nc2c1
inactive: UACC-62 > 100 µM | SK-MEL-2 > 100 µM | Hs-578T > 100 µM | SNB-75 > 100 µM | PC-3 > 100 µM | A498 > 100 µM | SK-MEL-5 > 100 µM | SF-268 > 100 µM | SN12C > 100 µM | SF-295 > 100 µM | SR > 100 µM | NCI-H522 > 100 µM | K562 > 100 µM | HCC 2998 > 100 µM | Malme-3M > 100 µM | BT-549 > 100 µM | NCI-H226 > 100 µM | U-251 > 100 µM

O=C(O)c1cc(-c2ccncc2)nc2ccccc12
inactive: UACC-62 > 100 µM | SK-MEL-2 > 100 µM | Hs-578T > 100 µM | PC-3 > 100 µM | A498 > 100 µM | SK-MEL-5 > 100 µM | SF-268 > 100 µM | SN12C > 100 µM | HOP-62 > 100 µM | SF-295 > 100 µM | SR > 100 µM | NCI-H522 > 100 µM | K562 > 100 µM | HCC 2998 > 100 µM | Malme-3M > 100 µM | BT-549 > 100 µM | NCI-H226 > 100 µM | U-251 > 100 µM

O=C(/C=C/c1ccccc1)Oc1ccc(C(=O)/C=C/c2ccccc2)cc1
inactive: UACC-62 12.9 µM | SK-MEL-2 22.4 µM | Hs-578T 23.3 µM | SNB-75 12.5 µM | PC-3 9.31 µM | A498 > 10 µM | SK-MEL-5 16.9 µM | SF-268 12.3 µM | SN12C 10.3 µM | HOP-62 12.9 µM | SF-295 12.9 µM | SR 2.1 µM | NCI-H522 11.4 µM | K562 3.4 µM | HCC 2998 8.47 µM | Malme-3M > 10 µM | BT-549 6.49 µM | NCI-H226 34.4 µM

CSCCCC(NC(=O)CNC(=O)C1CCCN1C(=O)C(Cc1ccc(O)cc1)NC(=O)C(Cc1ccccc1)NC(=O)C(CCCNC(=N)N)NC(=O)C(CC(=O)O)NC(=O)C1CCCN1C(=O)C(CC(=O)O)NC(=O)C1CCCN1C(=O)C1CCCN1C(=O)CN)C(N)=O (configuration not stated) (H-GPPDPDRFYPG[X41]-NH2; configuration not given here)
inactive: UACC-62 > 50 µM | SK-MEL-2 > 50 µM | Hs-578T > 50 µM | PC-3 > 50 µM | A498 > 50 µM | SK-MEL-5 > 50 µM | SF-268 > 50 µM | SN12C > 50 µM | HOP-62 > 50 µM | SF-295 > 50 µM | SR > 50 µM | NCI-H522 > 50 µM | K562 > 50 µM | Malme-3M > 50 µM | BT-549 > 50 µM | NCI-H226 > 50 µM | U-251 > 50 µM
